# Legend:
# C. krusei ATCC 32672 = test: Checkerboard MIC assay, FICI; assay type: cell-based, Candida krusei
# Source text: (§1) The following assay was used to determine the minimum inhibitory concentration (MIC) and fractional inhibitory concentration index (FICI) for combinations of an antifungal agent and a glycopeptide antibacterial agent. This assay and methods for calculating FICI are well known in the art. See, for example, Eliopoulos, E. G. and R. Moellering, Jr. “Antimicrobial Combinations” in Antibiotics in Laboratory Medicine, edited by V. Lorian, 4th Ed., Williams & Wilkins, Baltimore, MD, pp. 330-396 (1996); […] et al., Antimicrobial Agents and Chemotherapy 47(4):1416-1418 (2003); or […] et al., Antimicrobial Agents and Chemotherapy 46(10):3323-3326 (2002). Procedures, protocols, supplies and equipment used in this assay follow the recommendations approved and published by the National Committee for Clinical Laboratory Standards (NCCLS), Wayne, Pa. as described in NCCLS 2003, “Reference Method for Broth Dilution Antimicrobial Susceptibility Tests for Bacteria that Grow Aerobically; Approved Standard” (NCCLS document M7-A6); NCCLS 2002, “Reference Method for Broth Dilution Antifungal Susceptibility Tests of Filamentous Fungi that Grow Aerobically; Approved Standard” (NCCLS document M38-A); and NCCLS 2002 “Reference Method for Broth Dilution Antifungal Susceptibility Tests of Yeast; Approved Standards-2nd Edition” (NCCLS document M27-A2). Using a checkerboard method, a 2-fold dilution 100× final concentration master plate was prepared using a 96-well U-shape microtiter plate and an appropriate solvent. In the “checkerboard” method, a microtiter plate is divided into “columns” in which each well in the column contains the same amount of an antifungal agent (Compound A) being diluted along the x-axis, and “rows” in which each well in the row contains the same amount of a glycopeptide antibacterial agent (Compound B) being diluted on the y-axis. Also included is a row (or column) for Compound A or B alone. The dilutions used in the checkerboard are exponential (by powers of two). The result is that each well in the microtiter plate contains a unique concentration of the two compounds being tested. […] After mixing, 100 μL of 2× drug combinations were distributed into 96-well microtiter plates. […] Compound A was not added to Column 12, so Column 12 contained only Compound B. Compound B was diluted from row A starting at 6,400 μg/mL down to row G (100 μg/mL). Wells in Row A contained a final concentration of 64 μg/mL of Compound B; Row B contained a final concentration of 32 μg/mL of Compound B; Row C contained a final concentration of 16 μg/mL of Compound B; etc. Compound B was not added to Row H, so Row H only contained Compound A. […] The MIC of the glycopeptide antibacterial agent determined from this experiment was used in FIC calculations. […] RPMI-1640 without sodium bicarbonate media (GIBCO-BRL, Carlsbad, Calif.), an enriched media formulated for mammalian cells, was used according to the NCCLS guidelines for yeast and filamentous fungi susceptibility testing. The medium was buffered with 0.165 M 3-[N-Morpholino]propanesulfonic acid (MOPS) supplemented with 20 g/L glucose and pH adjusted to 7.0 with hydrogen chloride. Sabouraud Dextrose Agar ([…] plates, and Potato Dextrose Agar (PDA) plates were purchased from Hardy Diagnostic (Santa Maria, Calif.). Yeast cultures were started from -80° C. frozen stock streaked on […] incubated at 35° C. under aerobic conditions for 24 h. The […] in the refrigerator for up to 2 weeks and used regularly as a starting culture. About 24 to 48 h before each assay was run, yeasts were streaked on SDA plates for isolated colonies. To prepare the inoculum, from one to four colonies were resuspended in 5 mL of saline, and vortexed for 15 sec. […] For most yeast and mold cultures, the optical density (OD) of the suspension was adjusted to 0.11 in saline to provide 0.4×10^6 CFU/mL. However, for Fusarium moniliforme and Pseudallescheria boydii the OD of the suspension was adjusted to OD=0.17 to provide 0.4×10^6 CFU/mL. […]
# C. tropicalis ATCC 750 = test: Checkerboard MIC assay, FICI; assay type: cell-based, Candida tropicalis
# Source text: as §1
# C. albicans ATCC 24433 = test: Checkerboard MIC assay, FICI; assay type: cell-based, Candida albicans
# Source text: as §1
# [1] = tested on: C. parapsilosis ATCC 22019; test: Checkerboard MIC assay, FICI; assay type: cell-based, Candida parapsilosis
# Source text: as §1
# C. glabrata ATCC 200918 = test: Checkerboard MIC assay, FICI; assay type: cell-based, Candida glabrata; conditions: combination with Compound 1
# Source text: The following assay was used to determine the minimum inhibitory concentration (MIC) and fractional inhibitory concentration index (FICI) for combinations of an antifungal agent and a glycopeptide antibacterial agent. This assay and methods for calculating FICI are well known in the art. See, for example, Eliopoulos, E. G. and R. Moellering, Jr. “Antimicrobial Combinations” in Antibiotics in Laboratory Medicine, edited by V. Lorian, 4th Ed., Williams & Wilkins, Baltimore, MD, pp. 330-396 (1996); […] et al., Antimicrobial Agents and Chemotherapy 47(4):1416-1418 (2003); or […] et al., Antimicrobial Agents and Chemotherapy 46(10):3323-3326 (2002). Procedures, protocols, supplies and equipment used in this assay follow the recommendations approved and published by the National Committee for Clinical Laboratory Standards (NCCLS), Wayne, Pa. as described in NCCLS 2003, “Reference Method for Broth Dilution Antimicrobial Susceptibility Tests for Bacteria that Grow Aerobically; Approved Standard” (NCCLS document M7-A6); NCCLS 2002, “Reference Method for Broth Dilution Antifungal Susceptibility Tests of Filamentous Fungi that Grow Aerobically; Approved Standard” (NCCLS document M38-A); and NCCLS 2002 “Reference Method for Broth Dilution Antifungal Susceptibility Tests of Yeast; Approved Standards-2nd Edition” (NCCLS document M27-A2). Using a checkerboard method, a 2-fold dilution 100× final concentration master plate was prepared using a 96-well U-shape microtiter plate and an appropriate solvent. In the “checkerboard” method, a microtiter plate is divided into “columns” in which each well in the column contains the same amount of an antifungal agent (Compound A) being diluted along the x-axis, and “rows” in which each well in the row contains the same amount of a glycopeptide antibacterial agent (Compound B) being diluted on the y-axis. Also included is a row (or column) for Compound A or B alone. The dilutions used in the checkerboard are exponential (by powers of two). The result is that each well in the microtiter plate contains a unique concentration of the two compounds being tested. […] After mixing, 100 μL of 2× drug combinations were distributed into 96-well microtiter plates. […] Compound A was not added to Column 12, so Column 12 contained only Compound B. Compound B was diluted from row A starting at 6,400 μg/mL down to row G (100 μg/mL). Wells in Row A contained a final concentration of 64 μg/mL of Compound B; Row B contained a final concentration of 32 μg/mL of Compound B; Row C contained a final concentration of 16 μg/mL of Compound B; etc. Compound B was not added to Row H, so Row H only contained Compound A. […] The MIC of the glycopeptide antibacterial agent determined from this experiment was used in FIC calculations. […]
# various strains of fungi = test: Assay for determining MIC and FICI, summary over strains; assay type: cell-based; conditions: combination with amphotericin B
# Source text: The following assay was used to determine the minimum inhibitory concentration (MIC) and fractional inhibitory concentration index (FICI) for combinations of an antifungal agent and a glycopeptide antibacterial agent. This assay and methods for calculating FICI are well known in the art. See, for example, Eliopoulos, E. G. and R. Moellering, Jr. “Antimicrobial Combinations” in Antibiotics in Laboratory Medicine, edited by V. Lorian, 4th Ed., Williams & Wilkins, Baltimore, MD, pp. 330-396 (1996); Shalit et al., Antimicrobial Agents and Chemotherapy 47(4):1416-1418 (2003); or Afeltra et al., Antimicrobial Agents and Chemotherapy 46(10):3323-3326 (2002).
# Procedures, protocols, supplies and equipment used in this assay follow the recommendations approved and published by the National Committee for Clinical Laboratory Standards (NCCLS), Wayne, Pa. as described in NCCLS 2003, “Reference Method for Broth Dilution Antimicrobial Susceptibility Tests for Bacteria that Grow Aerobically; Approved Standard” (NCCLS document M7-A6); NCCLS 2002, “Reference Method for Broth Dilution Antifungal Susceptibility Tests of Filamentous Fungi that Grow Aerobically; Approved Standard” (NCCLS document M38-A); and NCCLS 2002 “Reference Method for Broth Dilution Antifungal Susceptibility Tests of Yeast; Approved Standards-2nd Edition” (NCCLS document M27-A2). […]
# [2] = combination with Amphotericin B, C. krusei 32672
# [3] = combination with Amphotericin B, C. tropicalis 750
# [4] = combination with Amphotericin B, C. albicans 24433
# [5] = combination with Amphotericin B, C. parapsilosis 22019
# [6] = combination with Compound 1, C. krusei ATCC 32672
# [7] = combination with Compound 1, C. tropicalis ATCC 750
# [8] = combination with Compound 1, C. albicans ATCC 24433
# [9] = combination with Compound 1, C. parapsilosis ATCC 22019
Compound,FICI (C. krusei ATCC 32672; [2]),FICI (C. tropicalis ATCC 750; [3]),FICI (C. albicans ATCC 24433; [4]),"FICI [1, 5]",FICI (C. krusei ATCC 32672; [6]),FICI (C. glabrata ATCC 200918),FICI (C. tropicalis ATCC 750; [7]),FICI (C. albicans ATCC 24433; [8]),"FICI [1, 9]",effect of the combination (various strains of fungi)
"CCCCCCCCCCNCCN[C@@]1(C)C[C@H](O[C@H]2[C@H](Oc3c4cc5cc3Oc3ccc(cc3Cl)[C@@H](O)[C@@H](NC(=O)[C@@H](CC(C)C)NC)C(=O)N[C@@H](CC(N)=O)C(=O)N[C@H]5C(=O)N[C@H]3C(=O)N[C@H](C(=O)N[C@H](C(=O)O)c5cc(O)c(CNCP(=O)(O)O)c(O)c5-c5cc3ccc5O)[C@H](O)c3ccc(c(Cl)c3)O4)O[C@H](CO)[C@@H](O)[C@@H]2O)O[C@@H](C)[C@H]1O [Compound 1, telavancin]",0.31,0.31,0.31,0.31,,,,,,
OC(Cn1cncn1)(Cn1cncn1)c1ccc(F)cc1F [Fluconazole],,,,,2.00,2.00,2.00,2.00,2.00,
"Clc1ccc(COC(Cn2ccnc2)c2ccc(Cl)cc2Cl)c(Cl)c1 (centres unmarked) [Miconazole, miconazole]",,,,,,,2.00,2.00,2.00,
CN[C@H](CC(C)C)C(=O)N[C@H]1C(=O)N[C@@H](CC(N)=O)C(=O)N[C@H]2C(=O)N[C@H]3C(=O)N[C@H](C(=O)N[C@H](C(=O)O)c4cc(O)cc(O)c4-c4cc3ccc4O)[C@H](O)c3ccc(c(Cl)c3)Oc3cc2cc(c3O[C@@H]2O[C@H](CO)[C@@H](O)[C@H](O)[C@H]2O[C@H]2C[C@](C)(N)[C@H](O)[C@H](C)O2)Oc2ccc(cc2Cl)[C@H]1O [Vancomycin],2.00,2.00,2.00,2.00,,,,,,not synergistic or additive
"C[C@@H](c1ncncc1F)[C@](O)(Cn1cncn1)c1ccc(F)cc1F [Voriconazole, voriconazole]",,,,,1.13,1.13,,,,
Teicoplanin,0.38,0.38,0.53,0.38,,,,,,
